The source made the active and inactive calls.
Key:
Cytochrome P450 2C9 = Cytochrome P450 2C9 (Homo sapiens, UniProt P11712)
Caspase-3 = biological target: T1, Caspase-3 (Homo sapiens, UniProt P42574); assay type: functional;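 note: Dose-response selectivity test against caspase-3 for candidate inhibitors of sentrin-specific proteases (SENPs)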
T1 sequence (P42574 whole entry): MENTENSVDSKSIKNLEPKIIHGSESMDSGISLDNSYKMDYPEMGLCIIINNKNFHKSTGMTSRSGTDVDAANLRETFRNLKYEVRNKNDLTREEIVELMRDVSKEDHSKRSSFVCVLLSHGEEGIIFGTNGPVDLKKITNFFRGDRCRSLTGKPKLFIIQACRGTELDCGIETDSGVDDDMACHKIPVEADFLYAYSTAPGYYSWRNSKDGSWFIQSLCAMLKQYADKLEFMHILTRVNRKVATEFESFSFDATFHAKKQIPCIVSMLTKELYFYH

[1] = biological target: T2, Sentrin-specific protease 8 (Homo sapiens, UniProt Q96LD8); assay type: functional
T2 sequence (Q96LD8 whole entry): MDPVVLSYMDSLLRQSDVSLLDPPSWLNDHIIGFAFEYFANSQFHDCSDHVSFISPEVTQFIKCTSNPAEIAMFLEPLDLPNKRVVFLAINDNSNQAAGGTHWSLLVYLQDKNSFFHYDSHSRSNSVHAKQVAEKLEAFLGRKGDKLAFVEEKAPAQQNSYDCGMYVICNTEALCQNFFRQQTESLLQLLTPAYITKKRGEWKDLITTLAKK

[2] = biological target: T2, Sentrin-specific protease 8; assay type: functional; remark: listed apart in the source
A-375 = test: MITF: Counter assay: A375 proliferation Measured in Cell-Based System Using Plate Reader - 2084-03_Inhibitor_Dose_DryPowder_Activity. [Related pubchem assays (depositor defined):AID488944]; assay type: functional; conditions: Homo sapiens
Genome polyprotein = Genome polyprotein (dengue virus type 2, UniProt P29990); test: flavivirus cap methylation enzyme inhibition – biochemical, confirmation dose response, primary screen (AID 588689); assay type: functional
Vero = test: viability of Vero cells under compound – cytotoxicity control for flavivirus capping enzyme inhibitors (AID 588742); assay type: functional; conditions: Chlorocebus sabaeus
[3] = biological target: Glucose-6-phosphate 1-dehydrogenase (Homo sapiens, UniProt P11413); test: inhibition of Homo sapiens G6PD, dose series – biochemical, fluorescence, selectivity assay for P. falciparum G6PD inhibitor project, dose response (AID 504792); assay type: functional
INS1 = test: INS-1E survival protection against cytokine death – cell-based, luminescence, retest, dose response (AID 449756); assay type: functional; conditions: Rattus norvegicus;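 note: cell death triggered by IL-1 beta plus TNF-alpha plus IFN-gamma mixture; protective hits raise ATP signal compared with cytokine alone wells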
[4] = biological target: Induced myeloid leukemia cell differentiation protein Mcl-1 (Homo sapiens, UniProt Q07820); assay type: functional
Sequence of Induced myeloid leukemia cell differentiation protein Mcl-1 (Q07820 whole entry): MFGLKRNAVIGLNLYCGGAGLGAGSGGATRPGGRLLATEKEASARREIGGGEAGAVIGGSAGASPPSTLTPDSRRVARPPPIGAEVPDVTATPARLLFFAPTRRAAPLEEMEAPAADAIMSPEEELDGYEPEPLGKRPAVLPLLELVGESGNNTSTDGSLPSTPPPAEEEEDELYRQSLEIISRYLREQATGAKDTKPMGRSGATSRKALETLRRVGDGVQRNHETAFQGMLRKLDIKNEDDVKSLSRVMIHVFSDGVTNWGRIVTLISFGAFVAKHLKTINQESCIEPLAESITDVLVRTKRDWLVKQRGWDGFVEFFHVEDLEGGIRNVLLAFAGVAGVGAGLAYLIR

Sequence of Genome polyprotein (P29990 2492-3391 limits assumed): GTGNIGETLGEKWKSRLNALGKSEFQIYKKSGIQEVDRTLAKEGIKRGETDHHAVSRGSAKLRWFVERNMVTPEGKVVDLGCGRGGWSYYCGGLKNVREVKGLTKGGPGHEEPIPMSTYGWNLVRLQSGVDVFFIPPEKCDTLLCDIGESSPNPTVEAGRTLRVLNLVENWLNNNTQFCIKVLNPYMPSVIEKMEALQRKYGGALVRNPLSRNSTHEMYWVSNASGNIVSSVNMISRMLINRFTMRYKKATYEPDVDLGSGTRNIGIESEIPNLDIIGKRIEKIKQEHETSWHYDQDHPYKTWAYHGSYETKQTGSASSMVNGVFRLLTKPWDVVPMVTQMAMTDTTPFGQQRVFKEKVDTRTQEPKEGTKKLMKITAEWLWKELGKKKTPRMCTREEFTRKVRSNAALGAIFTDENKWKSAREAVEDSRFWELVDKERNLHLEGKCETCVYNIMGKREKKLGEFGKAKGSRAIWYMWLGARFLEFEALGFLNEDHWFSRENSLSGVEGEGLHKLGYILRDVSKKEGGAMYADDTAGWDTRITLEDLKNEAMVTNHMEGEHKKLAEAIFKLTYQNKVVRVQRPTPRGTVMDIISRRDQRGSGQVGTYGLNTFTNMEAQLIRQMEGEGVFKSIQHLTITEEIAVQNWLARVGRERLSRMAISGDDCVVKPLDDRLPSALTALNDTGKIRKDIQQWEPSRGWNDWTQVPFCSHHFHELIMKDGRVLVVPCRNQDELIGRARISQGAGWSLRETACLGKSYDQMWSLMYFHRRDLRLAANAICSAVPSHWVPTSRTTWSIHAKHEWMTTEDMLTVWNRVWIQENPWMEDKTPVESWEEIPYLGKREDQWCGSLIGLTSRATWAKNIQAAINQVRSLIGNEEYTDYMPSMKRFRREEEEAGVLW
Sequence of Glucose-6-phosphate 1-dehydrogenase (P11413 whole entry): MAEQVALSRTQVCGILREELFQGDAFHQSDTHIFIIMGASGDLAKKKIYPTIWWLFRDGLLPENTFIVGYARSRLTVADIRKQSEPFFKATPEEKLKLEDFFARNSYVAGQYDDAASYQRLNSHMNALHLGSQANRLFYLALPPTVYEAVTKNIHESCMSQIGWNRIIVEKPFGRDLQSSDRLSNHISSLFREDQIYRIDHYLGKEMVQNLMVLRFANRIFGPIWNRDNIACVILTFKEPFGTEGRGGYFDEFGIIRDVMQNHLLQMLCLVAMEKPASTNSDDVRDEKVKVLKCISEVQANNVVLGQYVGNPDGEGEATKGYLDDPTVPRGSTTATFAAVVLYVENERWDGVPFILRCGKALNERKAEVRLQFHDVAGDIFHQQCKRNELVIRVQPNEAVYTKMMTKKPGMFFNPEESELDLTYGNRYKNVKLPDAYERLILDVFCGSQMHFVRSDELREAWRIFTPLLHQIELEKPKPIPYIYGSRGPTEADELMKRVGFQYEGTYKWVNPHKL
Sequence of Cytochrome P450 2C9 (P11712 whole entry): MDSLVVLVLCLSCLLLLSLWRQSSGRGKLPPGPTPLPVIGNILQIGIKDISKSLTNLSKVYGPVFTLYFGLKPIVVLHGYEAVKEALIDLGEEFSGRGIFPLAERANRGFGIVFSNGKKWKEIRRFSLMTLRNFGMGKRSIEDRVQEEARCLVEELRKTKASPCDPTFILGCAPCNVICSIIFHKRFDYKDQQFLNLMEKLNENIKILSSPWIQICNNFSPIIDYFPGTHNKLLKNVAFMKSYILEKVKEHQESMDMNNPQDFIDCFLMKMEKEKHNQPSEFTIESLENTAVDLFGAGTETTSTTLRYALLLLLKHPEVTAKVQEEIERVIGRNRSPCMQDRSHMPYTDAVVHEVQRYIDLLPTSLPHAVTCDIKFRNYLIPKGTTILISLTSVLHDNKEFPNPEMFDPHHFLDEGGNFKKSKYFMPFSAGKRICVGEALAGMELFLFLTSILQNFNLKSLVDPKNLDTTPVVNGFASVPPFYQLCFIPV

In the case of `CC(C)=CCC1=C(OCC(=O)O)C(=O)c2ccccc2C1=O`, the AC50 (Cytochrome P450 2C9) is reported as 3.98 µM (inconclusive), the IC50 (Caspase-3) is reported as 15 µM (active) and the IC50 [1] is reported as 3.91 µM (active).
`Cc1[nH][nH]c(=O)c1C(c1c(C)[nH][nH]c1=O)c1cn(Cc2ccccc2Cl)c2ccccc12` was tested, and the IC50 [2] was 4.89 µM (active).
For `Cc1cccc(NC2=C(NC(=O)c3ccccc3)C(=O)c3ccccc3C2=O)c1`, the AC50 (A-375) was 34 µM (active), the IC50 (Genome polyprotein) was 58.4 µM (active) and the CC50 (Vero) was > 40 µM (active). The IC50 [3] was > 80 µM (inactive), the AC50 (INS1) was 7.52 µM (active) and the IC50 [4] was 2.86 µM (active).

Source: ChEMBL document CHEMBL1201862, “PubChem BioAssay data set” (2004)
